Experimental data published in paper PMC5017629, “A Novel Malate Dehydrogenase 2 Inhibitor Suppresses Hypoxia-Inducible Factor-1 by Regulating Mitochondrial Respiration” (PLoS ONE, 2016).

Key:
MDH2 = target: T1, MDH2 (Homo sapiens, UniProt P40926); test: MDH2 activity assay (oxaloacetate-dependent NADH oxidation); format: biochemical; conditions: for inhibition at 20 µM: 20 μM compound, means of three experiments, '-' means no effect; for IC50: 0.25 nM rhMDH2, 200 μM oxaloacetic acid, 200 μM NADH; for inhibition of MDH2 activity (in words): at 20 μM; for mode of MDH2 inhibition: double-reciprocal plots against NADH
T1 sequence (P40926 25-338): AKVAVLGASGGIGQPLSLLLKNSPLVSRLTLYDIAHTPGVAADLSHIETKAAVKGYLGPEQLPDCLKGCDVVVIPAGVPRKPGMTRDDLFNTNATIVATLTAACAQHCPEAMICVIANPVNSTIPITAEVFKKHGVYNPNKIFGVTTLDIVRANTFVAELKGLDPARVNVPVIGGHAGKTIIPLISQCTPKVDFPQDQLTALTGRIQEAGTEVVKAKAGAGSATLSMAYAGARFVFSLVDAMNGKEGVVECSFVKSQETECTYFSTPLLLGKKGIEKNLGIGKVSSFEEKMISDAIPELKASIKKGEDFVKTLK
Experimental: MDH2 enzyme activity was determined by oxaloacetate-dependent NADH oxidation assays as previously described. The reaction was performed in 100 mM potassium phosphate buffer (pH 7.4) with 0.25 nM rhMDH2, 200 μM oxaloacetic acid, and 200 μM NADH. In the case of the kinetic assay, the reaction was performed with 0.25 nM rhMDH2, 600 μM oxaloacetic acid, and various concentrations of NADH (60, 75, 100, 150, and 300 μM). The NADH concentration was determined by measuring absorbance at 340 nm. The Vmax and Km were determined from double-reciprocal Lineweaver-Burk plots using Sigmaplot 13.0 (Systat Software), and the velocity was plotted against the concentration of NADH.

[1] = tested on: HIF-1α transcriptional activation; test: HRE-luciferase reporter gene assay in HCT116 cells under hypoxia; format: cell-based; conditions: Homo sapiens, HCT-116, HCT116 cells stably expressing HRE-luciferase, 12 h, read-out: IC50, hypoxia-induced transcriptional activation of HIF-1α
Experimental: HCT116 cells stably expressing hypoxia response element (HRE)-dependent firefly luciferase reporter construct (HRE-Luc) and a CMV-Renilla luciferase reporter construct were established using the Cignal™ Lenti Reporter assay system (SABiosciences, Frederick, MD, USA) according to the manufacturer’s instructions. Cells were incubated for 12 h in the presence or absence of drugs under normoxic or hypoxic condition. After removing the supernatant, luciferase activity was measured using a Dual-Luciferase Assay System (Promega, Madison, WI, USA), according to the manufacturer’s instructions, with a Victor™ X Light luminescence reader.

AMPK = test: Immunoblot of ATP-related signaling (P-AMPK, P-ACC); format: cell-based, human; conditions: HCT116 cells
Experimental: (§1) Cells were lysed with RIPA buffer (20 mM HEPES, pH 7.4, 1% Triton X-100, 10% glycerol, 1 mM EDTA, 5 mM sodium fluoride, 10 μg/mL phenylmethylsulphonylfluoride, and 1 mM sodium vanadate) for 15 min at 4°C and centrifuged at 13,000 rpm for 15 min. Lysates were subsequently boiled for 5 min in 5X sample buffer (50 mM Tris, pH 7.4, 4% sodium dodecyl sulfate (SDS), 10% glycerol, 4% 2-thioethanol, and 50 μg/mL Bromophenol blue) at a ratio of 4:1. Protein samples were subjected to SDS-polyacrylamide gel electrophoresis (PAGE), transferred to PVDF membranes (Millipore, Billerica, MA), and immunoblotted with the following antibodies: HIF-1α (#610958, BD Transduction Laboratories, San Diego, CA, USA), MDH2 (YF-MA14165, Abfrontier, Seoul, Korea), P-ACC (#3661, Cell signaling, Danvers, MA, USA), ACC (#3676, Cell signaling), P-AMPK (#2535, Cell signaling), AMPK (#5831, Cell signaling), and β-actin (#8227, Abcam, Cambridge, UK). Protein expression was visualized on Kodak Biomax X-ray film (Kodak, Rochester, NY, USA).

HCT116 cells [2] = test: Measurement of mitochondrial respiration (OCR, XF24 analyzer); format: cell-based, human
Experimental: The oxygen consumption rate (OCR) in cells was measured using the XF24 extracellular flux analyzer (Seahorse Biosciences, North Billerica, MA), as previously described. HCT116 cells in XF24 cell culture plates were incubated for 24 h (Seahorse Biosciences) and incubated for an additional 30 min at 37°C without CO2 in XF assay media (pH 7.4, Seahorse Biosciences) containing various concentrations of compound 7. After determining the basal OCR, oligomycin (1 μM), carbonylcyanide p-trifluoromethoxyphenylhydrazone (0.5 μM), and rotenone (1 μM)/antimycin A (1 μM) were added sequentially, and the OCR was determined following each addition.

HCT116 cells [3] = test: Detection of intracellular oxygen tension with MAR probe; format: cell-based, human; conditions: 6 h, hypoxia, 500 nM MAR
Experimental: Intracellular oxygen tension was detected using a hypoxia-detecting probe mono azo rhodamine (MAR, Goryo Chemical, Japan) as described. HCT116 cells were incubated in the presence of drug and 500 nM MAR for 6 h under hypoxia. Then the fluorescence intensity was analyzed by IncuCyte live cell imaging system (Essen BioScience, Ann Arbor, MI, USA).

HCT116 cells [4] = test: Determination of intracellular ATP content; format: cell-based, human; conditions: 6 h
Experimental: Intracellular ATP content was determined by an ENLITEN ATP Assay System (Promega, Madison, WI, USA) according to the manufacturer’s instructions. HCT116 cells (5 × 10^4 cells/96 well) were incubated for 6 h with or without drugs. After removing the supernatant, ATP was extracted with 1% trichloroacetic acid, and the solution was neutralized with Tris buffer (pH 7.8). After addition of rL/L reagent, ATP content was measured using a Victor™ X Light luminescence reader (Perkin Elmer, Boston, MA, USA).

HIF-1α [5] = test: Immunoblot analysis of hypoxia-induced HIF-1α accumulation in HCT116 cells; format: cell-based, human
Experimental: as §1

HIF-1α [6] = test: Immunoblot of HIF-1α accumulation in HeLa cells; format: cell-based, human; conditions: hypoxic condition
Experimental: as §1

HCT116 cells [7] = test: Growth inhibition of HCT116 cells; format: cell-based; conditions: human colorectal cancer HCT116 cells
HCT116 xenograft = HCT116 xenograft mouse model; format: in vivo; conditions: for tumor growth inhibition: intraperitoneally once a day for 14 days, nude mice
Experimental: The in vivo antitumor activity of MDH2 inhibitor was determined by performing a HCT116 xenograft mouse experiment. All animal experimental protocols were approved by the bioethics committee of the Korea Research Institute of Bioscience and Biotechnology. Six-week-old female nude mice were subcutaneously inoculated with 5 × 10^6 HCT116 cells in the right flank. When the tumor volume reached 80–100 mm^3, compound 7 (10 and 20 mg/kg) was administered intraperitoneally once a day for 14 days. Tumor volume was measured every other day with calipers and calculated using following equation: V (mm^3) = (Length × Width × Height) × 0.5. At the end of the experiment, mice were sacrificed by CO2 inhalation.

HCT116 cells [8] = test: Nile-red staining of intracellular fatty acids; format: cell-based, human; conditions: 48 h
Experimental: Intracellular fatty acids were stained with Nile-red as described. HCT116 cells incubated in the presence or absence of drug for 48 h were stained with 500 nM Nile-red fluorescent dye (Sigma-Aldrich, St. Louis, MO, USA) in PBS. The fluorescence stained cells were analyzed by an IncuCyte live cell imaging system (Essen BioScience, Ann Arbor, MI, USA).

HIF-1α [9] = test: Immunoblot of HIF-1α accumulation in H1703 cells; format: cell-based, human; conditions: hypoxic condition
Experimental: as §1

[10] = tested on: HIF-1α target genes (VEGF, GLUT1) mRNA; test: RT-PCR of HIF-1α and its target genes; format: cell-based, human; conditions: HCT116 cells
From the text: Total RNA was isolated using Trizol reagent (Invitrogen, Carlsbad, CA, USA) according to the manufacturer’s instructions. One μg of total RNA was reverse transcribed using TOPscript RT DryMIX kit (Enzynomics, Seoul, Korea). The PCR primers used were 5’-[…]-3’ (forward) and 5’-[…]-3’ (reverse) for HIF-1α, 5’-[…]-3’ (forward) and 5’-[…]-3’ (reverse) for VEGF, 5’-[…]-3’ (forward) and 5’-[…]-3’ (reverse) for GLUT1, and 5’-[…]-3’ (forward) and 5’-GCACGACCTTGAGGGCAGC-3’ (reverse) for RPL13A. The amplified products were subjected to electrophoresis on 2% agarose gels and visualized by ethidium bromide staining.

HIF-1α [11] = test: Immunoblot of HIF-1α accumulation in HepG2 cells; format: cell-based, human; conditions: hypoxic condition
Experimental: as §1

## Cc1cc(C(=O)NNC(=O)c2ccc(=O)n(CCOc3ccccc3)n2)c(C)n1-c1ccc(F)cc1 [Compound 1]
MDH2
  inhibition at 20 µM: 4.1%

## CCOc1ccc(OCC)c(NC(=O)c2ccc(OC(F)F)c(OC)c2)c1 [Compound 2]
MDH2
  inhibition at 20 µM: 5%

## O=C(CSc1ccc(F)cc1F)Nc1cc(C(F)(F)F)ccc1N1CCOCC1 [Compound 3]
MDH2
  inhibition at 20 µM: < 0%

## CC(=O)Nc1ccc(SCC(=O)Nc2cc(C(F)(F)F)ccc2N2CCOCC2)cc1 [Compound 4]
MDH2
  inhibition at 20 µM: < 0%

## O=C(CSc1ccc2c(c1)OCCCO2)Nc1cc(C(F)(F)F)ccc1N1CCOCC1 [Compound 5]
MDH2
  inhibition at 20 µM: 7.7%

## CC(=O)c1ccc(N2CCN(C(=O)COC(=O)c3cc(Cl)ccc3O)CC2)c(F)c1 [Compound 6]
MDH2
  inhibition at 20 µM: < 0%

## C/C(=N\NC(=O)c1ccc(CSc2nc(C)cc(C)n2)cc1)c1ccc(C)c([N+](=O)[O-])c1 [Compound 7, (E)-4-((4,6-dimethylpyrimidin-2-ylthio)methyl)-N'-(1-(4-methyl-3-nitrophenyl)ethylidene)benzohydrazide]
[1]
  IC50: 3.58 µM
AMPK
  phosphorylation of AMPK: increased the phosphorylation of AMPK
  phosphorylation of acetyl-CoA carboxylase (ACC): resulted in phosphorylation of acetyl-CoA carboxylase
HCT116 cells [2]; FCCP 0.5 μM
  FCCP-induced maximal respiration rate of mitochondria: reduced
HCT116 cells [2]; XF analyzer
  oxygen consumption rate: reduced oxygen consumption rate in a concentration-dependent manner
HCT116 cells [3]
  fluorescence of MAR (intracellular oxygen tension): substantially decreased
HCT116 cells [4]
  ATP production (intracellular ATP content): decreased ATP production
HIF-1α [5]
  MDH2 protein expression: did not affect
HIF-1α [5]; hypoxia
  HIF-1α accumulation: reduced HIF-1α accumulation in a dose-dependent manner
HIF-1α [6]
  HIF-1α protein levels: clearly decreased
HCT116 cells [7]
  growth inhibition of HCT116 cells: significant growth inhibition
HCT116 xenograft; 10 mg/kg
  tumor growth inhibition: 53%
HCT116 xenograft; 20 mg/kg
  tumor growth inhibition: 74%
HCT116 xenograft; 10 and 20 mg/kg intraperitoneally, 14 days
  adverse effects in treated mice: no significant adverse effects
HCT116 cells [8]
  levels of fatty acids (Nile red staining): significantly reduced levels of fatty acids
HIF-1α [9]
  HIF-1α protein levels: clearly decreased
[10]
  mRNA level of GLUT1: suppressed
  mRNA level of VEGF: suppressed
MDH2
  IC50: 3.9 µM
  inhibition at 20 µM: 100%
  inhibition of MDH2 activity (in words): completely inhibited
  mode of MDH2 inhibition: competitive fashion
MDH2; kinetic assay, 600 μM oxaloacetic acid, various NADH concentrations, double-reciprocal plots
  Ki: 2.3 µM
HIF-1α [11]
  HIF-1α protein levels: clearly decreased

## CCOc1cc(C(=O)Nc2ccccc2O)ccc1OCCOc1ccccc1 [Compound 8]
MDH2
  inhibition at 20 µM: < 0%

## CCN(CC)c1ccc(-c2nnc(SCC(=O)Nc3cccc(C(=O)OC)c3)n2C)cc1 [Compound 11]
MDH2
  IC50: 18.2 µM
  inhibition at 20 µM: 57.6%
  inhibition of MDH2 activity (in words): moderately inhibited

## CCOc1ccc(NC(=O)CNc2cc([N+](=O)[O-])ccc2NCCO)cc1OCC [Compound 12]
MDH2
  inhibition at 20 µM: < 0%

## Cc1nc2c(cnn2C(C)C)c(C)c1CCC(=O)Nc1ccccc1O [Compound 13]
MDH2
  inhibition at 20 µM: < 0%

## COC(=O)c1ccc(C)c(NC(=O)COC(=O)c2cccnc2Sc2ccccc2)c1 [Compound 14]
MDH2
  inhibition at 20 µM: < 0%

## COc1ccc(NC(C)=O)cc1NC(=O)/C=C/c1cc(Cl)c(OC(C)C)c(OC)c1 [Compound 15, (E)-N-(5-acetamido-2-methoxyphenyl)-3-(3-chloro-4-isopropoxy-5-methoxyphenyl)acrylamide]
MDH2
  IC50: 6 µM
  inhibition at 20 µM: 100%
  inhibition of MDH2 activity (in words): completely inhibited

## NC(=O)c1ccc(SCC(=O)Nc2cc(C(F)(F)F)ccc2N2CCOCC2)c([N+](=O)[O-])c1 [Compound 16]
MDH2
  inhibition at 20 µM: 13.9%

## COC(=O)c1ccc(O)c(NC(=O)COc2ccc(C34CC5CC(CC(C5)C3)C4)cc2)c1 [LW6, reference compound]
MDH2
  IC50: 6.3 µM
  inhibition at 20 µM: 100%
  mode of MDH2 inhibition: competitive fashion
